Experimental data taken from patent publication US20260103465A1, “GLYCOGEN SYNTHASE KINASE 3 INHIBITORS AND USES THEREOF” (The Broad Institute, Inc., priority 2023, published 2026).
Read-outs that look alike come from different tables or passages of the source.

Key:
[1] = biological target: T1, GSK3a (GST-full length GSK3a) (Homo sapiens, UniProt P49840); assay: GSK3a TR-FRET kinase inhibition assay; assay type: biochemical
T1 construct: GST-full length GSK3a [SignalChem G08-10G]; purchased SignalChem G08-10G
T1 sequence (P49840 whole entry): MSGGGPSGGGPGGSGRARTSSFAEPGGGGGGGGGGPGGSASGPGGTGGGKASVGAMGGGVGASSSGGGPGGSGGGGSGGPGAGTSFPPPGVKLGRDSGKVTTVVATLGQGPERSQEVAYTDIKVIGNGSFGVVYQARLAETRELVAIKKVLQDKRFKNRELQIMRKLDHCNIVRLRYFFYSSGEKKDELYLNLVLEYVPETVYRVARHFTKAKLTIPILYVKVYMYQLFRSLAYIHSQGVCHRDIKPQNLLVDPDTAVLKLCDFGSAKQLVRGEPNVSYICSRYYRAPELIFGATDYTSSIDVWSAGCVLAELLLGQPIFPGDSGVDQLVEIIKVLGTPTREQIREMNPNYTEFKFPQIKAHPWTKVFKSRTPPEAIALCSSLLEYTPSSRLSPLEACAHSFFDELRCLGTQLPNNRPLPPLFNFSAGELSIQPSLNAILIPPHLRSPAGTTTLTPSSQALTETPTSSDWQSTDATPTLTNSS
How it was run: (§1)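 IC50 derived from normalized 665/615 TR-FRET signal (Tb anti-pSer641 antibody, streptavidin-d2), read after EDTA stop. Reaction: 1 nM GST-full-length enzyme, 30 min compound pre-incubation, 100 min at ambient temperature in Tris pH 7.5 with 1% DMSO, 200 nM biotinylated primed glycogen synthase peptide, ATP 2 μM to 1 mM.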

[2] = biological target: T2, GSK3b (GST-full length GSK3b) (Homo sapiens, UniProt P49841); assay: GSK3b TR-FRET kinase inhibition assay; assay type: biochemical
T2 construct: GST-full length GSK3b: [SignalChem G08-9G]; purchased SignalChem G08-9G
T2 sequence (P49841 whole entry): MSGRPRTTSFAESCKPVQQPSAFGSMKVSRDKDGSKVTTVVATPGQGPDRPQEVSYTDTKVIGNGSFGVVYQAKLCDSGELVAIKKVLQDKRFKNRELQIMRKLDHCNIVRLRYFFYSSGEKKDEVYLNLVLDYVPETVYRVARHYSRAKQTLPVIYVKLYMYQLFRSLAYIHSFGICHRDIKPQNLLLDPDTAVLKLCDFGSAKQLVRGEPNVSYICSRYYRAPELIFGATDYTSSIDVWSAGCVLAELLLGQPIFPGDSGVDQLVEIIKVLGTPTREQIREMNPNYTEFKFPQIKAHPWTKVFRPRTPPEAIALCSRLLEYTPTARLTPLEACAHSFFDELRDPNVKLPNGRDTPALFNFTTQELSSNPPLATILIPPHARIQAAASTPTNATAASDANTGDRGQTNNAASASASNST
How it was run: as §1

[3] = Human liver microsomal stability; assay type: in vitro ADME; conditions: human liver microsomes
Description: Stability of compound (5 μL of a 10 mM DMSO solution) in human liver microsomes was tested in duplicate by incubating compound at 1 μM for 60 minutes at 37° C. Compound level at 60 minutes was compared to level at 0 minutes, and percent remaining was calculated. Order by selecting Microsomal Stability in Prometheus, checking boxes for desired species. Assay Controls: microsomes with NADPH without compound-matrix interference. Microsomes plus compound without NADPH—non-enzymatic instability.

[4] = test system: MDR1-MDCK cell monolayers; assay: MDR1/MDCK permeability assay; assay type: in vitro ADME; conditions: for MDCK Permeability (MDR1-MDCK); Mean; Papp(A-B) (10^−6 cm/s): A to B; for MDCK Permeability (MDR1-MDCK); Mean; Papp(B-A) (10^−6 cm/s): B to A; for MDCK Permeability (MDR1-MDCK); Mean; P. Ratio(B-A/A-B) Efflux Ratio / MIDCK Permeability (MDR1-MDCK); Mean; P. Ratio(B-A/A-B) Efflux Ratio: Papp B-A/A-B
From the text: The MDR1/MDCK assay is run at WuXi and Absorption Systems. This assay is used to determine the blood-brain barrier (BBB) penetration potential of a test compound using MDR1-MDCK cell monolayers. Catalog number EA203.
• The percent recovery of the test compound from the Transwell® wells containing MDR1-MDCK cell monolayers • The apparent permeability (Papp) in both directions • The efflux ratio (Papp B to A)/(Papp A to B) • The blood-brain barrier penetration potential classification: • High when • Papp A to B≥3.0×10^−6 cm/s, and efflux<3.0 • Moderate when • Papp A to B≥3.0×10^−6 cm/s, and 10>efflux≥3.0 • Low when either • Papp A to B≥3.0×10^−6 cm/s, and […], or when • Papp A to B<[…].
• Test compound at 5 μM in HBSSg with maximum DMSO concentration not greater than 1%.
• Confluent monolayers of MDR1-MDCK cells, 7 to 11 days old.
• Receiver well with 1% BSA in modified Hanks buffer (HBSSg) • Apical and basolateral side at pH 7.4 • Dose two monolayers in each direction (N=2) • Dose apical side for (A to B) assessment • Dose basolateral side for (B to A) assessment • Sample both apical and basolateral sides at 120 minutes • Determine the concentrations of test compound using a generic LC-MS/MS method with a minimum 4 point calibration curve.
• The quality of the cell monolayer batch is verified using control compounds before monolayers are released for use • The quality of each monolayer used in the assay is verified by a TEER measurement and by calculating the Papp for a control compound.

[5] = 4 μM ATP, read-out: GSK3α TR-FRET 4 μM ATP GMean IC50
[6] = 1 mM ATP, Table 4, read-out: GSK3α TR-FRET 1 mM ATP GMean IC50
[7] = 2 μM ATP, read-out: GSK3β TR-FRET 2 μM ATP GMean IC50
[8] = 1 mM ATP, Table 4, read-out: GSK3β TR-FRET 1 mM ATP GMean IC50
[9] = 10 μM ATP, read-out: GSK3a 10 μM ATP Average IC50
[10] = 100 μM ATP, read-out: GSK3a 100 μM ATP Average IC50
[11] = 1 mM ATP, Table 3, read-out: GSK3a TR-FRET 1 mM ATP Average IC50
[12] = 10 μM ATP, read-out: GSK3b 10 μM ATP Average IC50
[13] = 100 μM ATP, read-out: GSK3b 100 μM ATP Average IC50
[14] = 1 mM ATP, Table 3, read-out: GSK3b TR-FRET 1 mM ATP Average IC50

Row | Compound | IC50 [1, 5] | IC50 [1, 6] | IC50 [2, 7] | IC50 [2, 8] | Microsome Stability (Human) (DMPK_BIIB); Mean; in vitro t1/2 ([3]; Table 4) | MDCK Permeability (MDR1-MDCK); Mean; Papp(A-B) (10^−6 cm/s) ([4]; Table 4) | MDCK Permeability (MDR1-MDCK); Mean; Papp(B-A) (10^−6 cm/s) ([4]; Table 4) | MDCK Permeability (MDR1-MDCK); Mean; P. Ratio(B-A/A-B) Efflux Ratio ([4]; Table 4) | IC50 [1, 9] | IC50 [1, 10] | IC50 [1, 11] | IC50 [2, 12] | IC50 [2, 13] | IC50 [2, 14] | Microsome Stability (Human) (DMPK_BIIB); Mean; in vitro t1/2 ([3]; Table 3) | MDCK Permeability (MDR1-MDCK); Mean; Papp(A-B) (10^−6 cm/s) ([4]; Table 3) | MDCK Permeability (MDR1-MDCK); Mean; Papp(B-A) (10^−6 cm/s) ([4]; Table 3) | MIDCK Permeability (MDR1-MDCK); Mean; P. Ratio(B-A/A-B) Efflux Ratio ([4]; Table 3)
1 | CCC1(c2ccccc2)C2=C(CC(C)(C)CC2=O)Nc2ncccc21 (single isomer, unassigned) [102 A] | ≤ 0.1 µM | 1 to 5 µM | ≤ 0.1 µM | 5 to 20 µM | 9.1 min | 8.7 10^−6 cm/s | 26 10^−6 cm/s | 2.9 |  |  |  |  |  |  |  |  |  | 
2 | CCC1(c2ccccc2)C2=C(CC(C)(C)CC2=O)Nc2ncccc21 (single isomer, unassigned) [102 B] | > 5 µM |  | > 5 µM |  | 1.2 min | 6.7 10^−6 cm/s | 29 10^−6 cm/s | 4.3 |  |  |  |  |  |  |  |  |  | 
3 | CCC1(c2cccc(-c3ccnc(C)c3C)c2)C2=C(CC(C)(C)CC2=O)Nc2ncccc21 (single isomer, unassigned) [147 B] | ≤ 0.1 µM | 0.1 to 1 µM | ≤ 0.1 µM | 1 to 5 µM | 14 min | 8.1 10^−6 cm/s | 31 10^−6 cm/s | 3.8 |  |  |  |  |  |  |  |  |  | 
4 | CCC1(c2ccccc2)C2=C(CC(C)(C)CC2=O)Nc2ncccc21 (single isomer, unassigned) [Compound 102A] |  |  |  |  |  |  |  |  | ≤ 0.1 µM | 0.1 to 1 µM | 1 to 5 µM | ≤ 0.1 µM | 0.1 to 1 µM | 1 to 5 µM | 14 min | 22 10^−6 cm/s | 19 10^−6 cm/s | 0.87
5 | CCC1(c2ccccc2)C2=C(CC3(CCC3)CC2=O)Nc2ncccc21 (single isomer, unassigned) [Compound 110A] |  |  |  |  | 5.4 min | 22 10^−6 cm/s | 31 10^−6 cm/s | 1.4 |  |  | 1 to 5 µM |  |  | 5 to 20 µM |  |  |  | 
6 | CCC1(c2ccccc2)C2=C(CC(C)(C)CC2=O)Nc2ncc(F)cc21 (single isomer, unassigned) [Compound 114A] |  |  |  |  | 37 min | 10 10^−6 cm/s | 20 10^−6 cm/s | 2.0 | ≤ 0.1 µM | ≤ 0.1 µM | 0.1 to 1 µM | ≤ 0.1 µM | ≤ 0.1 µM | 1 to 5 µM | 49 min | 23 10^−6 cm/s | 16 10^−6 cm/s | 0.68
7 | CC(C)(C)Cc1ccnc2c1C(C)(c1ccccc1)C1=C(CC(C)(C)CC1=O)N2 (single isomer, unassigned) [Compound 130A] |  |  |  |  |  |  |  |  | ≤ 0.1 µM | 0.1 to 1 µM | 5 to 20 µM | ≤ 0.1 µM | 0.1 to 1 µM | 5 to 20 µM | 0.55 min | 1.4 10^−6 cm/s | 0.65 10^−6 cm/s | 0.48
8 | CC(C)(C)Cc1ccnc2c1C(C)(c1ccccc1)C1=C(CC(C)(C)CC1=O)N2 (single isomer, unassigned) [Compound 130B] |  |  |  |  |  |  |  |  | 0.1 to 1 µM | 1 to 5 µM | 5 to 20 µM | 0.1 to 1 µM | 0.1 to 1 µM | 5 to 20 µM | 0.53 min | 1.3 10^−6 cm/s | 0.75 10^−6 cm/s | 0.60

The remaining lines, values ahead:

Row | IC50 [1, 5] | IC50 [1, 6] | IC50 [2, 7] | IC50 [2, 8] | Microsome Stability (Human) (DMPK_BIIB); Mean; in vitro t1/2 ([3]; Table 4) | MDCK Permeability (MDR1-MDCK); Mean; Papp(A-B) (10^−6 cm/s) ([4]; Table 4) | MDCK Permeability (MDR1-MDCK); Mean; Papp(B-A) (10^−6 cm/s) ([4]; Table 4) | MDCK Permeability (MDR1-MDCK); Mean; P. Ratio(B-A/A-B) Efflux Ratio ([4]; Table 4) | IC50 [1, 9] | IC50 [1, 10] | IC50 [1, 11] | IC50 [2, 12] | IC50 [2, 13] | IC50 [2, 14] | Microsome Stability (Human) (DMPK_BIIB); Mean; in vitro t1/2 ([3]; Table 3) | MDCK Permeability (MDR1-MDCK); Mean; Papp(A-B) (10^−6 cm/s) ([4]; Table 3) | MDCK Permeability (MDR1-MDCK); Mean; Papp(B-A) (10^−6 cm/s) ([4]; Table 3) | MIDCK Permeability (MDR1-MDCK); Mean; P. Ratio(B-A/A-B) Efflux Ratio ([4]; Table 3) | Compound
9 |  |  |  |  |  |  |  |  | ≤ 0.1 µM | 0.1 to 1 µM | 1 to 5 µM | ≤ 0.1 µM | 0.1 to 1 µM | 1 to 5 µM | 37 min | 30 10^−6 cm/s | 22 10^−6 cm/s | 0.72 | CC1(C)CC(=O)C2=C(C1)Nc1ncccc1C2(C)c1ccccc1 (single isomer, unassigned) [Compound 101A]
10 |  |  |  |  |  |  |  |  |  |  | 1 to 5 µM |  |  | 1 to 5 µM | 94 min | 30 10^−6 cm/s | 18 10^−6 cm/s | 0.61 | CC1(C)CC(=O)C2=C(C1)Nc1ncc(F)cc1C2(C)c1ccccc1 (single isomer, unassigned) [Compound 107B]
11 |  |  |  |  | 1.7 min | 12 10^−6 cm/s | 24 10^−6 cm/s | 2.1 |  |  |  |  |  |  |  |  |  |  | CCC1(c2ccccc2)C2=C(CC(C)(C)CC2=O)Nc2ncc(F)cc21 (single isomer, unassigned) [Compound 114B]
12 |  |  |  |  |  |  |  |  |  |  | 0.1 to 1 µM |  |  | 0.1 to 1 µM | 8.3 min | 17 10^−6 cm/s | 8.7 10^−6 cm/s | 0.50 | CC1(C)CC(=O)C2=C(C1)Nc1nccc(C(F)(F)F)c1C2(C)c1ccccc1 (single isomer, unassigned) [Compound 127A]
13 |  |  |  |  |  |  |  |  |  |  | 1 to 5 µM |  |  | 1 to 5 µM | >145 min | 20 10^−6 cm/s | 10 10^−6 cm/s | 0.53 | CC1(C)CC(=O)C2=C(C1)Nc1ncc(C(F)(F)F)cc1C2(C)c1ccccc1 (single isomer, unassigned) [Compound 128B]
14 |  |  |  |  |  |  |  |  | 20 to 60 µM |  |  | 5 to 20 µM | 20 to 60 µM | 5 to 20 µM | 11 min | 2.1 10^−6 cm/s | 1.2 10^−6 cm/s | 0.60 | CC(C)(C)Cc1cnc2c(c1)C(C)(c1ccccc1)C1=C(CC(C)(C)CC1=O)N2 (single isomer, unassigned) [Compound 129A]
15 |  |  |  |  |  |  |  |  | 20 to 60 µM |  | 5 to 20 µM | 5 to 20 µM | 20 to 60 µM | 5 to 20 µM | 1.1 min | 1.8 10^−6 cm/s | 1.0 10^−6 cm/s | 0.59 | CC(C)(C)Cc1cnc2c(c1)C(C)(c1ccccc1)C1=C(CC(C)(C)CC1=O)N2 (single isomer, unassigned) [Compound 129B]
16 |  |  |  |  | 73 min | 11 10^−6 cm/s | 16 10^−6 cm/s | 1.5 |  |  |  |  |  |  |  |  |  |  | CCC1(c2ccccc2)C2=C(CC(C)(C)CC2=O)Nc2ncc(C(F)(F)F)cc21 (single isomer, unassigned) [Compound 133B]
